Reference: patent publication US8377875B2, “Therapeutics based on tau/microtubule dynamics” (Ramot at Tel-Aviv University Ltd., priority 2007, dated 2013)
Ends that are not written are not given here.

Key:
[1] = system: tubulin tyrosination cycle in rat pheochromocytoma cells (PC12); experiment: Cell-based tubulin tyrosination cycle assay in PC12 cells (confocal microscopy, ELISA); details: 2 hr
Description: Changes in the tubulin tyrosination cycle were used to study the effects of NAP on microtubule dynamics (Gozes and Littauer, Nature. 276:411-413 (1978)). This cycle includes the slow removal of the C-terminal tyrosine of microtubule alpha tubulin, resulting in Glu-tubulin and the fast re-addition of tyrosine (Tyr) to soluble alpha-tubulin in a reaction requiring ATP. […] A cell-based assay for anti-microtubule activity that relies on the properties above allows the identification of both microtubule-destabilizing and microtubule-stabilizing agents. The assay allows assessment of the relative degree of stable microtubule versus dynamic microtubules (Vassal et al., J Biomol Screen, 11: 377-389 (2006)) using confocal microscopy as well as quantitative Enzyme-Linked Immunosorbent Assay (ELISA).
Rat pheochromocytoma cells (PC12) were grown in Dulbecco's modified eagles medium (DMEM) supplemented with 5% fetal bovine serum and 10% donor horse serum 1% penicillin—streptomycin, 1% L-Glutamine (Beit Haemek, Israel) in an atmosphere of 5% CO2 and 95% air at 37° C. […] Cells were seeded on 96, 48 or 24 well plates in 100, 300 or 500 μl of medium volumes respectively and allowed to grow for 48 hr.
In short, medium was aspirated and cells were incubated for 3 min with 100, 300 or 500 μl warm MTSBT (Pipes pH 6.8 80 mM, EGTA 4 mM, MgCl2 1 mM, Triton X-100 0.5% v/v) buffer followed by 6 min with 100, 300 or 500 μl cold methanol (−20° C.). Blocking followed a re-hydration in cold TBST (NaCl 0.15 M, Tris-Cl pH 7.4, Triton X-100 0.1% v/v) followed by 5% non fat milk in TBST 10 min at room temp or −50 μg/ml of Goat IgG in AbDil [TBST+2% bovine serum albumin (Sigma, Rehovot Israel)] 10 min at room temp. For microtubule and nuclear staining, 50 μl (per well) of rat monocloncal antibodies detecting tyrosinated tubulin (YL1/2, Abcam, Cambridge, UK) and rabbit polyclonal antibodies detecting glutaminated tubulin (Abcam, Cambridge, UK) at 1:1000 dilution were added. After a 2 hr (37° C.) incubation the cells were washed twice with TBST or TBS and 50 μl per well of secondary goat anti-rat coupled by Cynine 3—Cy3 (1:1000), Cy2 goat anti rabbit (1:1000) (Jackson ImmunoResearch, West Grove, Pa., U.S.A), and Hoechst 33258 (Sigma) 1 μg/ml were added. Following one hour incubation at 37° C. and 3 washes in TBST or TBS, fluorescence was measured using Tecan Microplate fluorescent reader (Neoteck scientific instrumentation, Switzerland) infinite F200 and Magellan software version 6.3.
For visual inspection, cells were seeded on microscope cover slips, mounted on slides and inspected using confocal microscopy as before (Divinski et al. (2006)). […]

[2] = system: microtubules (tubulin and tau); experiment: Transmission electron microscopy of microtubules from mixtures of tubulin, tau and NAP; format: biochemical
Description: FIGS. 3A-E show electron microscopy studies were carried out on mixtures of tubulin, tau, and NAP. […] FIGS. 3A and 3C are 25,000× magnification; FIGS. 3B and 3D are 200,000× magnification. […] Additional electron microscopy studies were carried out on mixtures of NAP (1 pM, lanes 4,5,6. […]), tubulin 6 μM (lanes1,4, FIG. 3E) or 10 μM (lanes 2,3,5,6, FIG. 3E) and tau. Tubulin was obtained from Cytoskeleton (Denver, Colo., USA) and tau (0.7 μM) was purified from recombinant cDNA obtained from Professor Linda Amos (Kar et al., Embo J, 22: 70-77 (2003).). […] The box plot represents 3 different experiments (control vs. NAP-treated). Each experiment consists of either three or four repeats. P<0.001. The density of the microtubules was estimated by counting 20-23 fields in each of the experimental samples.
Transmission electron microscopy was carried out to identify and quantitate microtubule size and appearance in the presence and absence of NAP (in the microtubule pellets described above). Grids were stained with […].

[3] = target: T1, beta III tubulin (Homo sapiens, UniProt Q13509); experiment: Microtubule pelleting assay, western blot with beta III tubulin antibodies; format: biochemical; details: NAP 1 pM, tubulin 10 μM, tau 2.5 μM; vs absence of NAP
T1 construct: purchased Cytoskeleton (Denver, Colo., USA)
T1 sequence (Q13509 whole entry): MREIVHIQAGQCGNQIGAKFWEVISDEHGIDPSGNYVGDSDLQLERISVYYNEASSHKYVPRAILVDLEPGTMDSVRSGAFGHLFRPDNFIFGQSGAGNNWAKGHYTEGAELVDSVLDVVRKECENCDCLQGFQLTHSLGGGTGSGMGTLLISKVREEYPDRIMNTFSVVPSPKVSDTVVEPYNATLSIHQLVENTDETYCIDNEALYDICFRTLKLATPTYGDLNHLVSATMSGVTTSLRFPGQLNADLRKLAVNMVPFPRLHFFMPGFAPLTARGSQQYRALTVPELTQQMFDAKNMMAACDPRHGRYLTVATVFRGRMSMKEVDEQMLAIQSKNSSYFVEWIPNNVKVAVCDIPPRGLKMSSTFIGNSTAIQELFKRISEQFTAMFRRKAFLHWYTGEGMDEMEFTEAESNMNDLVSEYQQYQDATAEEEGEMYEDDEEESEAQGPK
T1 sequence (Q71U36 whole entry partner): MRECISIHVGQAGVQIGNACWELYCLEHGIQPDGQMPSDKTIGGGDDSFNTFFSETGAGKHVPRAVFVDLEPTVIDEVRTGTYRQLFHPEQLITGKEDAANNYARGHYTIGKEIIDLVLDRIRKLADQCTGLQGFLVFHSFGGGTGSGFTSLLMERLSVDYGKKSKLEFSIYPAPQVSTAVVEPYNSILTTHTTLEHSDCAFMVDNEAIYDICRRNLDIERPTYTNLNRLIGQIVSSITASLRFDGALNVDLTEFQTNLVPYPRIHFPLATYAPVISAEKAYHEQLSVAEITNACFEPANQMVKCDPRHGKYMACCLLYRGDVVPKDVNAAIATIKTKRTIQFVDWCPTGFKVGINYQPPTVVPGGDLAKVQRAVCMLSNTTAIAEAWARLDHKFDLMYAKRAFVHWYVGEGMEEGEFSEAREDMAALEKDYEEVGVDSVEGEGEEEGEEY
Description: FIG. 7 illustrates the effect of NAP (1 pM) on beta III tubulin precipitation (10 μM) with tau (2.5 μM) during microtubule (MT) assembly. The experiment was carried out as in FIG. 5, except that beta III antibodies were used. S=supernatant; P=pellet. The reduction of beta III tubulin in the pellet was significant (P<0.05). Beta III tubulin is enriched in neurons (Banerjee et al., J. Biol. Chem. 265: 1794-1799 (1990); Joshi and Cleveland, Cell Motil. Cytoskeleton 16:159-163 (1990)).
Densitometric scanning of the western blots (e.g. FIG. 7) including 8 independent experiments are depicted on the figures. S=supernatant; P=pellet; western blot anti beta III tubulin, 1:1, 400. The reduction reached significance (*P<0.05).
(§1) Tubulin, tau and NAP were prepared as described in Example 1. The microtubule pelleting assay was also carried out as in Example 1.
The resulting pellet was subjected to 12.0% polyacrylamide gel containing SDS (Kar et al. (2003)). Gels were either stained for proteins (Coomassie Brilliant Blue) or subjected to western analysis to specifically identify and quantitate tubulin in the microtubule pellet. […]

[4] = system: beta tubulin; experiment: Microtubule pelleting assay, western blot with TUB2.1 beta tubulin antibody; format: biochemical; details: NAP 1 pM, tubulin 10 μM, tau ~2.5 μM; 6 independent experiments
Description: FIG. 5 illustrates the effect of NAP on beta tubulin precipitation (10 μM) with tau (2.5 μM) during microtubule (MT) assembly. NAP (1 pM) incubation apparently reduces beta tubulin in the microtubule pellet. The monoclonal antibody used (TUB2.1) interacts specifically with beta tubulin species. Gozes and Barnstable, Proc Natl Acad Sci USA, 79: 2579-2583 (1982). Blots were performed as before (Divinski et al., J Neurochem, 98: 973-984 (2006)). S=supernatant; P=pellet.
Densitometric scanning of the western blots (e.g. FIG. 5) including 6 independent experiments are depicted on the figure. S=supernatant; P=pellet; western blot antitubulin 2.1, 1:1, 400.
as §1
The resulting pellet was subjected to 12.0% polyacrylamide gel containing SDS (Kar et al. (2003)). Gels were either stained for proteins (Coomassie Brilliant Blue) or subjected to western analysis to specifically identify and quantitate tubulin in the microtubule pellet. Three different antibodies were used, rabbit anti tubulin (Gozes et al. (1977)), mouse monoclonal antibodies that prefers neuronal beta tubulin species, TUB2.1 (Boss et al., Brain Res, 433:199-218 (1987); Gozes and Barnstable (1982)) and tubulin beta III (neuronal enriched) antibodies as before (Divinski et al. (2006)). […]

[5] = system: tubulin; experiment: Microtubule pelleting assay, western blot with polyclonal tubulin antibodies; format: biochemical; details: NAP 1 pM, tubulin 10 μM, tau ~2.5 μM
Description: FIG. 9 illustrates the effect of NAP on tubulin precipitation (10 μM) with tau (2.5 μM) during microtubule (MT) assembly. The experiment was carried out as in FIG. 5, except that polyclonal tubulin antibodies were used. (Gozes et al., FEBS Lett. 73(1):109-14 (1977)).
Densitometric scanning of the western blots (e.g. FIG. 9) including 6 independent experiments are depicted on the figure. S=supernatant; P=pellet; western blot anti tubulin, 1:1, 400-2000.
as §1
The resulting pellet was subjected to 12.0% polyacrylamide gel containing SDS (Kar et al. (2003)). Gels were either stained for proteins (Coomassie Brilliant Blue) or subjected to western analysis to specifically identify and quantitate tubulin in the microtubule pellet. Three different antibodies were used, rabbit anti tubulin (Gozes et al. (1977)), mouse monoclonal antibodies that prefers neuronal beta tubulin species, TUB2.1 (Boss et al., Brain Res, 433:199-218 (1987); Gozes and Barnstable (1982)) and tubulin beta III (neuronal enriched) antibodies as before (Divinski et al. (2006)). Western blotting was performed as before (Divinski et al. (2006)).

[6] = target: T2, tau-three microtubule binding domain repeats (Homo sapiens, UniProt P10636); experiment: Dot blot analysis of peptide binding to tau; details: peptide 10^−3M spotted, 2 μM tau
T2 construct: made in house
T2 sequence (P10636 1-410 isoform P10636-5): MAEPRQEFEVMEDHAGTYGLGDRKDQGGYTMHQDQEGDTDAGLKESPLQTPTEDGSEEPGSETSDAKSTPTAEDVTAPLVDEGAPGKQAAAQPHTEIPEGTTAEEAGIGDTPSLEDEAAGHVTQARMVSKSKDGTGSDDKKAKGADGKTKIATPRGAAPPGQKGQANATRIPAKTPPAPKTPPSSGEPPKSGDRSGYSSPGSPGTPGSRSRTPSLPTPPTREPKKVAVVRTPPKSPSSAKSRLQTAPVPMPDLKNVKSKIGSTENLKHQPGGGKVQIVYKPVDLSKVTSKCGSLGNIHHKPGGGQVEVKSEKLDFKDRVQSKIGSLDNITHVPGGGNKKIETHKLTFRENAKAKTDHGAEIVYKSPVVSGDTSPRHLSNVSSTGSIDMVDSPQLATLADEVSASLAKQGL
Description: For Dot Blot analysis, 5 μl of each sample [vasoactive intestinal peptide VIP (Dangoor et al., Regul Pept, 137: 42-49 (2006)); negative control and NAP 10^−3M) was applied onto the nitrocellulose membrane (Schleicher & Schuell, Dassel, Germany), and was left to dry (2 hr, room temperature). The membrane was further incubated with 2 μM tau-three microtubule binding domain repeats (1.5 hr, room temperature). The non-specific sites were blocked by soaking in a blocking solution (10 mM Tris, 6 mM NaCl, 0.05% Tween 20) that was supplemented with 5% low-fat milk (1 hr at room temperature). The membrane was incubated with primary antibody (tau5 antibody 1:1000), dissolved in 5% milk in blocking solution (12 hours at 4 C). The membrane was then washed three times with the blocking solution (3×10 min), incubated with secondary antibody conjugated with horseradish peroxidase (HRP) (1 hr at room temperature) and washed again three times with blocking solution (10 min×3). The membrane was incubated with ECL reagent (Western blotting detection system; Amersham Biosciences) for 1 min, covered and exposed Biomax Light Film (Kodak, Rochester, N.Y., USA). […]

[7] = target: tau (Homo sapiens, UniProt P10636); experiment: Affinity chromatography on NAP-affinity column with tau-specific western blot; format: binding
tau, sequence (P10636 1-441 isoform P10636-8): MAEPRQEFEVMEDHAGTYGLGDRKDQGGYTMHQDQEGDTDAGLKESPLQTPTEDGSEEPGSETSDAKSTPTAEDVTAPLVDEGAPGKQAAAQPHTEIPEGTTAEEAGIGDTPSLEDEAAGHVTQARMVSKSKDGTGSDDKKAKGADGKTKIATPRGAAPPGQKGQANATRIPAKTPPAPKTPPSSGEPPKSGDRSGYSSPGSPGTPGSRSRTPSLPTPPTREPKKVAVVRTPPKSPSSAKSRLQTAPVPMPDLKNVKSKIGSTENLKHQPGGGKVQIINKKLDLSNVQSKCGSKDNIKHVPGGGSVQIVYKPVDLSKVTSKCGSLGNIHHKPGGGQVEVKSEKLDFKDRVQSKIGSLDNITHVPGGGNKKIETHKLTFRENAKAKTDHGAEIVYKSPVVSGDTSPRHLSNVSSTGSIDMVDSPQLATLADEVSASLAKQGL

[8] = system: cell cultures; details: cited from earlier work
[9] = system: normal aging rats; details: intranasal administration; cited from earlier work
[10] = system: ischemic injury; details: after ischemic injury; cited from earlier work
[11] = system: closed head injury in mice; details: cited from earlier work
[12] = system: model of fetal alcohol syndrome; details: in vivo, ip; cited from earlier work
[13] = system: tau hyperphosphorylation; details: animal models; cited from earlier work
[14] = system: tubulin; details: cited from earlier work
[15] = system: microtubule formation; details: cited from earlier work
[16] = system: NIH 3T3 fibroblasts; details: cited from earlier work
[17] = system: MAP-2 expression in neuronal cells; details: cited from earlier work
[18] = in vivo; cited from earlier work
[19] = system: tubulin; experiment: Tubulin-NAP binding
[20] = system: mixed neuroglial cultures from newborn rat cortex; experiment: Neuroprotection against beta-amyloid 1-42 in mixed neuroglial cultures, MAP2 ELISA; format: cell-based; details: 0.25 μM beta-amyloid 1-42, 5 days, n=10 per data point

## CC(=O)O[C@H]1C(=O)[C@@]2(C)[C@H]([C@H](OC(=O)c3ccccc3)[C@]3(O)C[C@H](OC(=O)[C@H](O)[C@@H](NC(=O)c4ccccc4)c4ccccc4)C(C)=C1C3(C)C)[C@]1(OC(C)=O)CO[C@@H]1C[C@@H]2O [paclitaxel, reference compound]
[1]; paclitaxel 5 μM
  detyrosinated tubulin: significantly increased detyrosinated tubulin

## Asn-Ala-Pro-Val-Ser-Ile-Pro-Gln [NAP]
[2]; NAP 1 pM, tubulin 6 or 10 μM, tau 0.7 μM, vs control w/o NAP
  microtubule density (electron microscopy): increased microtubule density
[2]; NAP-treated samples vs control w/o NAP
  curves and microtubule length (electron microscopy): increases
[3]
  decrease in tubulin beta III in the microtubule pellet: approximately 2 fold
[4]
  reduction of beta tubulin in the microtubule pellet (TUB2.1 antibody): not significant
[5]
  decrease of tubulin in the microtubule pellet (polyclonal anti-tubulin antibodies): no significant decrease
[6]
  binding to tau (dot blot): can bind directly to tau
[7]
  binding to tau (affinity chromatography): binds to tau
[1]; 10^−19 M—10^−7M
  dose response for activation of the tyrosination cycle (ELISA): biphasic dose response curve
[1]; NAP 10^−11M
  activity on the tubulin tyrosination cycle: not active
[1]; NAP 10^−15M
  tyrosinated and detyrosinated alpha tubulin: significantly increased tyrosinated and detyrosinated alpha tubulin
[8]
  neuroprotective activity against a wide variety of toxins: neuroprotective activity at femtomolar concentrations
[9]
  performance in the Morris water maze: improved performance
[10]
  infarct volume and motor function deficits: reduced infarct volume and motor function deficits
[11]
  damage caused by closed head injury: reducing damage
[12]
  fetal death after intraperitoneal injection of alcohol: inhibited
[13]
  tau hyperphosphorylation: protected against tau hyperphosphorylation
[14]
  binding to tubulin: binds tubulin
[15]
  microtubule formation (turbidity): stimulate microtubule formation
[16]
  interaction with NIH 3T3 fibroblasts or other dividing cells: does not interact
[17]
  MAP-2 expression: increases MAP-2 expression
[18]
  crossing of the blood-brain barrier: can cross the blood-brain barrier

## SALLRSIPA [ADNF-9]
[19]
  effect on tubulin-NAP binding: diminish tubulin-NAP binding

## TAPVPMPD [a NAP-like, tau-derived peptide]
[20]
  concentrations at which neuronal survival was enhanced (MAP2 staining): 10^−19-10^−9 M

## vasoactive intestinal peptide [VIP, reference compound]
[6]
  binding to tau (dot blot): does not interact
